According to PubChem BioAssay (NCI):
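GI50: concentration for 50% inhibition of growth. TGI marks complete inhibition of growth.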

Tests used:
Experiment in all cases: NCI-60 cell line screen, 384-well format
786-0 renal = tested on: 786-0 renal
A498 renal = tested on: A498 renal
A549 NSCLC = tested on: A549 NSCLC
ACHN renal = tested on: ACHN renal
BT-549 breast = tested on: BT-549 breast
CAKI-1 renal = tested on: CAKI-1 renal
CCRF-CEM leukemia = tested on: CCRF-CEM leukemia
COLO 205 colon = tested on: COLO 205 colon
DU-145 prostate = tested on: DU-145 prostate
EKVX NSCLC = tested on: EKVX NSCLC
HCC-2998 colon = tested on: HCC-2998 colon
HL-60(TB) leukemia = tested on: HL-60(TB) leukemia
HOP-92 NSCLC = tested on: HOP-92 NSCLC
HS 578T breast = tested on: HS 578T breast
IGROV1 ovarian = tested on: IGROV1 ovarian
LOX IMVI melanoma = tested on: LOX IMVI melanoma
MALME-3M melanoma = tested on: MALME-3M melanoma
MCF7 breast = tested on: MCF7 breast
MDA-MB-231 breast = tested on: MDA-MB-231 breast
MDA-MB-435 melanoma = tested on: MDA-MB-435 melanoma
MDA-MB-468 breast = tested on: MDA-MB-468 breast
MOLT-4 leukemia = tested on: MOLT-4 leukemia
NCI-H226 lung = tested on: NCI-H226 lung
NCI-H23 lung = tested on: NCI-H23 lung
NCI-H322M lung = tested on: NCI-H322M lung
NCI-H460 NSCLC = tested on: NCI-H460 NSCLC
NCI-H522 lung = tested on: NCI-H522 lung
NCI/ADR-RES ovarian = tested on: NCI/ADR-RES ovarian
OVCAR-3 ovarian = tested on: OVCAR-3 ovarian
OVCAR-4 ovarian = tested on: OVCAR-4 ovarian
OVCAR-5 ovarian = tested on: OVCAR-5 ovarian
OVCAR-8 ovarian = tested on: OVCAR-8 ovarian
PC-3 prostate = tested on: PC-3 prostate
SF-268 CNS = tested on: SF-268 CNS
SK-MEL-28 melanoma = tested on: SK-MEL-28 melanoma
SK-OV-3 ovarian = tested on: SK-OV-3 ovarian
SN12C renal = tested on: SN12C renal
SNB-19 CNS = tested on: SNB-19 CNS
SNB-75 CNS = tested on: SNB-75 CNS
SR leukemia = tested on: SR leukemia
SW-620 colon = tested on: SW-620 colon
T-47D breast = tested on: T-47D breast
TK-10 renal = tested on: TK-10 renal
U251 glioblastoma = tested on: U251 glioblastoma
UACC-257 melanoma = tested on: UACC-257 melanoma
UACC-62 melanoma = tested on: UACC-62 melanoma
UO-31 renal = tested on: UO-31 renal

CC(F)(F)c1cc(F)ccc1-c1sc2cc(O)ccc2c1Oc1ccc(/C=C/C(=O)O)cc1
GI50 (786-0 renal): 14.6 µM
TGI (786-0 renal): 33.4 µM
GI50 (A498 renal): 13.3 µM
TGI (A498 renal): 29.1 µM
GI50 (A549 NSCLC): 13.8 µM
TGI (A549 NSCLC): 31.2 µM
GI50 (ACHN renal): 17 µM
TGI (ACHN renal): 37.8 µM
GI50 (BT-549 breast): 12.8 µM
TGI (BT-549 breast): 26.7 µM
GI50 (CAKI-1 renal): 15.1 µM
TGI (CAKI-1 renal): 29.9 µM
GI50 (CCRF-CEM leukemia): 12.6 µM
TGI (CCRF-CEM leukemia): 25.2 µM
GI50 (COLO 205 colon): 16.5 µM
TGI (COLO 205 colon): 31.7 µM
GI50 (DU-145 prostate): 17.4 µM
TGI (DU-145 prostate): 42.3 µM
GI50 (EKVX NSCLC): 16.9 µM
TGI (EKVX NSCLC): 37.9 µM
GI50 (HCC-2998 colon): 18.2 µM
TGI (HCC-2998 colon): 32.3 µM
GI50 (HL-60(TB) leukemia): 14.6 µM
TGI (HL-60(TB) leukemia): 27.8 µM
GI50 (HOP-92 NSCLC): 16.1 µM
TGI (HOP-92 NSCLC): 35.3 µM
GI50 (HS 578T breast): 10.2 µM
TGI (HS 578T breast): 22 µM
GI50 (IGROV1 ovarian): 18.1 µM
TGI (IGROV1 ovarian): 39.3 µM
GI50 (LOX IMVI melanoma): 13.5 µM
TGI (LOX IMVI melanoma): 26.7 µM
GI50 (MALME-3M melanoma): 13.5 µM
TGI (MALME-3M melanoma): 27.8 µM
TGI (MCF7 breast): 14 µM
GI50 (MDA-MB-231 breast): 15.7 µM
TGI (MDA-MB-231 breast): 29.5 µM
GI50 (MDA-MB-435 melanoma): 3.24 µM
TGI (MDA-MB-435 melanoma): 12.8 µM
GI50 (MDA-MB-468 breast): 11.7 µM
TGI (MDA-MB-468 breast): 26.6 µM
GI50 (MOLT-4 leukemia): 13.3 µM
TGI (MOLT-4 leukemia): 26.1 µM
GI50 (NCI-H226 lung): 20 µM
TGI (NCI-H226 lung): 40.3 µM
GI50 (NCI-H23 lung): 16.3 µM
TGI (NCI-H23 lung): 30.7 µM
GI50 (NCI-H322M lung): 14.4 µM
TGI (NCI-H322M lung): 33.6 µM
GI50 (NCI-H460 NSCLC): 17.6 µM
TGI (NCI-H460 NSCLC): 31.8 µM
GI50 (NCI-H522 lung): 8.38 µM
TGI (NCI-H522 lung): 21.3 µM
GI50 (NCI/ADR-RES ovarian): 16.5 µM
TGI (NCI/ADR-RES ovarian): > 100 µM
GI50 (OVCAR-3 ovarian): 12.6 µM
TGI (OVCAR-3 ovarian): 25.8 µM
GI50 (OVCAR-4 ovarian): 19.5 µM
TGI (OVCAR-4 ovarian): 74.9 µM
GI50 (OVCAR-5 ovarian): 18.2 µM
TGI (OVCAR-5 ovarian): 33.6 µM
GI50 (OVCAR-8 ovarian): 25.4 µM
TGI (OVCAR-8 ovarian): > 100 µM
GI50 (PC-3 prostate): 13.9 µM
TGI (PC-3 prostate): 28.1 µM
GI50 (SF-268 CNS): 16.7 µM
TGI (SF-268 CNS): 37.2 µM
GI50 (SK-MEL-28 melanoma): 11.5 µM
TGI (SK-MEL-28 melanoma): 32.9 µM
GI50 (SK-OV-3 ovarian): 20.2 µM
TGI (SK-OV-3 ovarian): 43.5 µM
GI50 (SN12C renal): 20.1 µM
TGI (SN12C renal): 40.5 µM
GI50 (SNB-19 CNS): 12.7 µM
TGI (SNB-19 CNS): 25.6 µM
GI50 (SNB-75 CNS): 15.5 µM
TGI (SNB-75 CNS): 33 µM
GI50 (SR leukemia): 2.08 µM
TGI (SR leukemia): 4.33 µM
GI50 (SW-620 colon): 16.9 µM
TGI (SW-620 colon): 30.9 µM
GI50 (T-47D breast): 11.2 µM
TGI (T-47D breast): 25.9 µM
GI50 (TK-10 renal): 22.9 µM
TGI (TK-10 renal): 61.6 µM
GI50 (U251 glioblastoma): 12.6 µM
TGI (U251 glioblastoma): 25.3 µM
GI50 (UACC-257 melanoma): 17 µM
TGI (UACC-257 melanoma): 36.4 µM
GI50 (UACC-62 melanoma): 9.94 µM
TGI (UACC-62 melanoma): 21.6 µM
GI50 (UO-31 renal): 12.4 µM
TGI (UO-31 renal): 26.3 µM
